Paper PMC5971037, “Synthesis and evaluation of antimicrobial, antitubercular and anticancer activities of 2-(1-benzoyl-1H-benzo[d]imidazol-2-ylthio)-N-substituted acetamides” (Chemistry Central Journal, 2018)
≈ marks a conversion by molar mass, not a printed value. Like-named read-outs stand apart in the source and are kept apart here.

Experiments:
[1] = tested on: S. typhi; experiment: Tube dilution MIC; format: cell-based; settings: Salmonella enterica, 24 h, read-out: MIC S. typhi
[2] = tested on: S. aureus; experiment: Tube dilution MIC; settings: Staphylococcus aureus, 24 h, read-out: MIC S. aureus
[3] = tested on: B. cereus; experiment: Tube dilution MIC; settings: Bacillus cereus, 24 h, read-out: MIC B. cereus
[4] = tested on: B. subtilis; experiment: Tube dilution MIC; settings: Bacillus subtilis, 24 h, read-out: MIC B. subtilis
[5] = tested on: E. coli; experiment: Tube dilution MIC; settings: Escherichia coli, 24 h, read-out: MIC E. coli
[6] = tested on: B. cereus; experiment: MBC by subculturing; format: cell-based
Method: (§1) The minimum bactericidal concentration (MBC) and minimum fungicidal concentration (MFC) of the synthesized benzimidazole derivatives was determined by subculturing 100 µl of culture from each tube that remained clear in MIC determination onto sterilized petri-plates containing fresh agar medium. The petri-plates were incubated and analyzed for microbial growth visually.

[7] = tested on: B. subtilis; experiment: MBC by subculturing; format: cell-based
Method: as §1

[8] = tested on: E. coli; experiment: MBC by subculturing; format: cell-based; settings: Escherichia coli
Method: as §1

[9] = tested on: S. aureus; experiment: MBC by subculturing; format: cell-based; settings: Staphylococcus aureus
Method: as §1

[10] = tested on: S. typhi; experiment: MBC by subculturing; format: cell-based; settings: Salmonella enterica, read-out: MBC S. typhi
Method: as §1

[11] = tested on: A. niger; experiment: MFC by subculturing; format: cell-based
Method: as §1

[12] = tested on: C. albicans; experiment: MFC by subculturing; format: cell-based
Method: as §1

[13] = tested on: M. tuberculosis H37Rv (NCFT/TB/537); experiment: Well diffusion susceptibility test (zone of inhibition); format: cell-based; settings: Mycobacterium tuberculosis, 672 h, read-out: Diameter of zone of inhibition against H37Rv (NCFT/TB/537), wells of 8 mm, 50 µg/ml test compound, 25 µg/ml standard drug, 4 weeks, NA = no activity
[14] = tested on: M. tuberculosis H37Rv; experiment: MIC by microplate alamar blue assay; format: cell-based; settings: Mycobacterium tuberculosis, NA = no activity, read-out: MIC against M. tuberculosis H37Rv
[15] = tested on: M. tuberculosis H37Rv; experiment: Minimum lethal concentration (MLC); format: cell-based; settings: Mycobacterium tuberculosis, NA = no activity, read-out: MLC against M. tuberculosis H37Rv
[16] = In vivo LD50, ED50 and toxic dose in mice models; settings: mouse, dose that killed 50% of the mice population within the group
Method: The LD50 and ED50 were determined for the active compounds in mice models infected with Mycobacterium H37Rv (Table 4). […] Thus, ED50 of 1.34 mg/kg was considered safe for each of the compounds. It was observed that this dose was effective and safe for mice in different groups before infecting the mice models with specific TB bacteria as no mortality of any single animal was recorded.
The LD50 (lethal dose) and ED50 (optimum/effective dose) doses were determined for the active compounds in mice models infected with Mycobacterium H37Rv via ethical permission no., NCFT/EC/16/2313 assigned to Collaborative Research Group (CRG), NCFT, New Delhi, India.

[17] = target: mycobacterial isocitrate lyase (Mycobacterium tuberculosis, UniProt P9WKK7); experiment: Mycobacterial isocitrate lyase (ICL) assay; format: biochemical, M. tuberculosis H37Rv; settings: read-out: Percent inhibition of enzyme, M. ICL activity
Chain of mycobacterial isocitrate lyase (P9WKK7 whole entry): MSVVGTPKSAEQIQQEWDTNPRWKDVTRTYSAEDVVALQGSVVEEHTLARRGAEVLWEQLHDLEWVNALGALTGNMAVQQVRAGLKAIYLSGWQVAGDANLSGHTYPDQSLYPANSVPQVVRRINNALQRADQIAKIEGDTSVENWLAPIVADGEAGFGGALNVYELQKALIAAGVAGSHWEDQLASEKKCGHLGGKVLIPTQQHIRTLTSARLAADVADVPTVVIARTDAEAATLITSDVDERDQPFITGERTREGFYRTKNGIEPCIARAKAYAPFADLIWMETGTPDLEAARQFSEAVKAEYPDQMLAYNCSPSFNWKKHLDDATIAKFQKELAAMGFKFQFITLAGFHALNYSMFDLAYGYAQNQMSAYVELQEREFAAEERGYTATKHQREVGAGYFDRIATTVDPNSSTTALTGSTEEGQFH
Method: The compounds found potent in in vivo evaluation were assayed for inhibition of mycobacterial enzymes viz., isocitrate lyase, pantothenate synthetase and chorismate mutase.
Isocitrate lyase activity was assayed according to the protocol reported by Dixon and Kornberg (glyoxylate phenyl hydrazone formation) at 10 μM of the compounds.

[18] = tested on: MCF7 (human breast cancer) cell line; experiment: Sulforhodamine-B (SRB) cytotoxicity assay; format: cell-based
[19] = tested on: HCT116 (human colorectal) cell line; experiment: Sulforhodamine-B (SRB) cytotoxicity assay; format: cell-based
[20] = tested on: C. albicans; experiment: microbe, parasite or virus in culture; settings: Candida albicans, 48 h, read-out: MIC C. albicans
[21] = tested on: A. niger; experiment: microbe, parasite or virus in culture; settings: Aspergillus niger, 168 h, read-out: MIC A. niger
[22] = Bacillus cereus, read-out: MBC B. cereus
[23] = Bacillus subtilis, read-out: MBC B. subtilis
[24] = Aspergillus niger, read-out: MFC A. niger
[25] = Candida albicans, read-out: MFC C. albicans
[26] = Bacillus cereus; read-out: MBC B. cereus
[27] = Bacillus subtilis; read-out: MBC B. subtilis
[28] = Aspergillus niger; read-out: MFC A. niger
[29] = Candida albicans; read-out: MFC C. albicans
[30] = SRB assay, MCF7 cell line, read-out: IC50 MCF7
[31] = HCT-116, SRB assay, HCT116 cell line, read-out: IC50 HCT116

Structure (SMILES)	MIC [1] [µM]	MIC [2] [µM]	MIC [3] [µM]	MIC [4] [µM]	MIC [5] [µM]	MBC [8] [µg/mL]	MBC [9] [µg/mL]	MBC [10] [µg/mL]	zone of inhibition at 50 µg/mL [13] [mm]	MIC [14] [µg/mL]	MBC [15] [µg/mL]	inhibition at 10 µM [17] [%]	MIC [20] [µM]	MIC [21] [µM]	MBC [6, 26] [µg/mL]	MBC [7, 27] [µg/mL]	MFC [11, 28] [µg/mL]	MFC [12, 29] [µg/mL]	other results
CC1=C(C(=O)O)N2C(=O)[C@@H](NC(=O)[C@H](N)c3ccc(O)cc3)[C@H]2SC1 [Cefadroxil, reference compound]	370 (≈ 134 µg/mL)	370 (≈ 134 µg/mL)	370 (≈ 134 µg/mL)	370 (≈ 134 µg/mL)	370 (≈ 134 µg/mL)														
O=C(CSc1nc2ccccc2n1C(=O)c1ccccc1)Nc1ccccc1 [Compound 1]	32 (≈ 12.4 µg/mL)	32 (≈ 12.4 µg/mL)	32 (≈ 12.4 µg/mL)	32 (≈ 12.4 µg/mL)	32 (≈ 12.4 µg/mL)	50 (≈ 129 µM)	50 (≈ 129 µM)	50 (≈ 129 µM)	> 20	12.5 (≈ 32.3 µM)	25 (≈ 64.5 µM)	62.2	32 (≈ 12.4 µg/mL)	32 (≈ 12.4 µg/mL)					MBC [6, 22]: > 50 µg/mL; MBC [7, 23]: > 50 µg/mL; MFC [11, 24]: > 50 µg/mL; MFC [12, 25]: 50 µg/mL (≈ 129 µM); LD50 [16]: 1.83 mg/kg; IC50 ([18]; MCF7, read-out: IC50 MCF7): 77.4 µM; IC50 ([19]; HCT-116, read-out: IC50 HCT116): > 258 µM
O=C(CSc1nc2ccccc2n1C(=O)c1ccccc1)Nc1ccccc1F [Compound 2, 2-(1-Benzoyl-1H-benzo[d]imidazol-2-ylthio)-N-(2-fluorophenyl)acetamide]	31 (≈ 12.6 µg/mL)	31 (≈ 12.6 µg/mL)	31 (≈ 12.6 µg/mL)	31 (≈ 12.6 µg/mL)	31 (≈ 12.6 µg/mL)	50 (≈ 123 µM)	> 50	50 (≈ 123 µM)	> 20	12.5 (≈ 30.8 µM)	25 (≈ 61.7 µM)	58.8	15 (≈ 6.08 µg/mL)	31 (≈ 12.6 µg/mL)					MBC [6, 22]: > 50 µg/mL; MBC [7, 23]: 50 µg/mL (≈ 123 µM); MFC [11, 24]: > 50 µg/mL; MFC [12, 25]: 50 µg/mL (≈ 123 µM); LD50 [16]: 1.81 mg/kg; IC50 ([18]; MCF7, read-out: IC50 MCF7): 4.7 µM; IC50 ([19]; HCT-116, read-out: IC50 HCT116): 83.9 µM
O=C(CSc1nc2ccccc2n1C(=O)c1ccccc1)Nc1cccc(Cl)c1 [Compound 5, 2-(1-Benzoyl-1H-benzo[d]imidazol-2-ylthio)-N-(3-chlorophenyl)acetamide]	30 (≈ 12.7 µg/mL)	30 (≈ 12.7 µg/mL)	30 (≈ 12.7 µg/mL)	30 (≈ 12.7 µg/mL)	30 (≈ 12.7 µg/mL)	50 (≈ 119 µM)	50 (≈ 119 µM)	50 (≈ 119 µM)	8	17.8 (≈ 42.2 µM)	28.1 (≈ 66.6 µM)		15 (≈ 6.33 µg/mL)	30 (≈ 12.7 µg/mL)	> 50	50 (≈ 119 µM)	> 50	50 (≈ 119 µM)	IC50 [18, 30]: 83.1 µM; IC50 [19, 31]: 131 µM
O=c1[nH]cc(F)c(=O)[nH]1 [Compound 5-FU, 5-fluorouracil, reference compound]																			IC50 [19, 31]: 12.5 µM
COc1cccc(NC(=O)CSc2nc3ccccc3n2C(=O)c2ccccc2)c1 [Compound 14, 2-(1-Benzoyl-1H-benzo[d]imidazol-2-ylthio)-N-(3-methoxyphenyl)acetamide]	30 (≈ 12.5 µg/mL)	30 (≈ 12.5 µg/mL)	30 (≈ 12.5 µg/mL)	30 (≈ 12.5 µg/mL)	30 (≈ 12.5 µg/mL)	50 (≈ 120 µM)	> 50	> 50					30 (≈ 12.5 µg/mL)	30 (≈ 12.5 µg/mL)	> 50	> 50	> 50	50 (≈ 120 µM)	IC50 [18, 30]: 95.8 µM; IC50 [19, 31]: 95.8 µM
Cc1ccccc1NC(=O)CSc1nc2ccccc2n1C(=O)c1ccccc1 [Compound 16, 2-(1-Benzoyl-1H-benzo[d]imidazol-2-ylthio)-N–o-tolylacetamide]	31 (≈ 12.4 µg/mL)	31 (≈ 12.4 µg/mL)	31 (≈ 12.4 µg/mL)	31 (≈ 12.4 µg/mL)	31 (≈ 12.4 µg/mL)	> 50	50 (≈ 125 µM)	50 (≈ 125 µM)	10	15 (≈ 37.4 µM)	28 (≈ 69.7 µM)		16 (≈ 6.42 µg/mL)	31 (≈ 12.4 µg/mL)	> 50	50 (≈ 125 µM)	> 50	25 (≈ 62.3 µM)	IC50 [18, 30]: 124 µM; IC50 [19, 31]: 87.2 µM
COc1ccccc1NC(=O)CSc1nc2ccccc2n1C(=O)c1ccccc1 [Compound 17, 2-(1-Benzoyl-1H-benzo[d]imidazol-2-ylthio)-N-(2-methoxyphenyl)acetamide]	30 (≈ 12.5 µg/mL)	30 (≈ 12.5 µg/mL)	30 (≈ 12.5 µg/mL)	30 (≈ 12.5 µg/mL)	30 (≈ 12.5 µg/mL)	> 50	50 (≈ 120 µM)	> 50	> 20	12.5 (≈ 29.9 µM)	25 (≈ 59.9 µM)	43.5	15 (≈ 6.26 µg/mL)	30 (≈ 12.5 µg/mL)					MBC [6, 22]: > 50 µg/mL; MBC [7, 23]: > 50 µg/mL; MFC [11, 24]: > 50 µg/mL; MFC [12, 25]: 50 µg/mL (≈ 120 µM); LD50 [16]: 3.17 mg/kg
COc1ccc(NC(=O)CSc2nc3ccccc3n2C(=O)c2ccccc2)cc1 [Compound 18, 2-(1-Benzoyl-1H-benzo[d]imidazol-2-ylthio)-N-(4-methoxyphenyl)acetamide]	30 (≈ 12.5 µg/mL)	30 (≈ 12.5 µg/mL)	30 (≈ 12.5 µg/mL)	30 (≈ 12.5 µg/mL)	30 (≈ 12.5 µg/mL)	50 (≈ 120 µM)	> 50	> 50	> 20	12.5 (≈ 29.9 µM)	25 (≈ 59.9 µM)	64.6	15 (≈ 6.26 µg/mL)	30 (≈ 12.5 µg/mL)					MBC [6, 22]: > 50 µg/mL; MBC [7, 23]: > 50 µg/mL; MFC [11, 24]: > 50 µg/mL; MFC [12, 25]: 50 µg/mL (≈ 120 µM); LD50 [16]: 3.15 mg/kg
Cc1cccc(NC(=O)CSc2nc3ccccc3n2C(=O)c2ccccc2)c1 [Compound 19, 2-(1-Benzoyl-1H-benzo[d]imidazol-2-ylthio)-N-m-tolylacetamide]	31 (≈ 12.4 µg/mL)	31 (≈ 12.4 µg/mL)	31 (≈ 12.4 µg/mL)	31 (≈ 12.4 µg/mL)	31 (≈ 12.4 µg/mL)	> 50	50 (≈ 125 µM)	> 50					16 (≈ 6.42 µg/mL)	31 (≈ 12.4 µg/mL)	> 50	50 (≈ 125 µM)	> 50	50 (≈ 125 µM)	
Cc1ccc(NC(=O)CSc2nc3ccccc3n2C(=O)c2ccccc2)c(C)c1 [Compound 20, 2-(1-Benzoyl-1H-benzo[d]imidazol-2-ylthio)-N-(2,4-dimethylphenyl)acetamide]	30 (≈ 12.5 µg/mL)	30 (≈ 12.5 µg/mL)	30 (≈ 12.5 µg/mL)	30 (≈ 12.5 µg/mL)	30 (≈ 12.5 µg/mL)	> 50	50 (≈ 120 µM)	50 (≈ 120 µM)	10	15 (≈ 36.1 µM)	28 (≈ 67.4 µM)		15 (≈ 6.23 µg/mL)	30 (≈ 12.5 µg/mL)	> 50	50 (≈ 120 µM)	> 50	25 (≈ 60.2 µM)	
OC(Cn1cncn1)(Cn1cncn1)c1ccc(F)cc1F [Fluconazole, reference compound]													470 (≈ 144 µg/mL)	470 (≈ 144 µg/mL)					
[H]/N=C(/N)N[C@H]1[C@H](O)[C@@H](O)[C@H](O[C@@H]2O[C@@H](C)[C@](O)(C=O)[C@H]2O[C@@H]2O[C@@H](CO)[C@H](O)[C@@H](O)[C@@H]2NC)[C@@H](N/C(N)=N\[H])[C@@H]1O [Streptomycin sulphate, streptomycin sulphate, reference compound]												75.1							
[H]/N=C(/N)N[C@H]1[C@H](O)[C@@H](O)[C@H](O[C@@H]2O[C@@H](C)[C@](O)(C=O)[C@H]2O[C@@H]2O[C@@H](CO)[C@H](O)[C@@H](O)[C@@H]2NC)[C@@H](N/C(N)=N\[H])[C@@H]1O [Streptomycin, reference compound]									> 20	12.5 (≈ 21.5 µM)	25 (≈ 43 µM)								
